According to PubChem BioAssay AID1963962 (Molecular Pharmacology Branch, DTP, NCI, 2024):
pIC50: −log10 of the molar value.

Tested on: 967376-340-R-J2-PDC multicell spheroid viability
Assay: Anticancer human tumor 967376-340-R-J2-PDC patient-derived colon adenocarcinoma cell line growth inhibition [PI3K]
Settings: for pIC50: curve of first compound; for viability, T/C: stronger effect = lower value
How it was run: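 Tumor cells were combined with HUVEC and MSCs into spheroids, then dosed with PI3K-inhibitor combinations over half-log ranges capped near clinical Cmax or 10 microM.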

[1] = second compound 0.0316 µM, first compound 0.0316 µM
[2] = second compound 0.0316 µM, first compound 0.1 µM
[3] = second compound 0.0316 µM, first compound 0.316 µM
[4] = second compound 0.0316 µM, first compound 1 µM
[5] = second compound 0.0316 µM, first compound 3.16 µM
[6] = second compound 0.0316 µM, first compound 10 µM
[7] = second compound 0.1 µM, first compound 0.0316 µM
[8] = second compound 0.1 µM, first compound 0.1 µM
[9] = second compound 0.1 µM, first compound 0.316 µM
[10] = second compound 0.1 µM, first compound 1 µM
[11] = second compound 0.1 µM, first compound 3.16 µM
[12] = second compound 0.1 µM, first compound 10 µM
[13] = second compound 0.316 µM, first compound 0.0316 µM
[14] = second compound 0.316 µM, first compound 0.1 µM
[15] = second compound 0.316 µM, first compound 0.316 µM
[16] = second compound 0.316 µM, first compound 1 µM
[17] = second compound 0.316 µM, first compound 3.16 µM
[18] = second compound 0.316 µM, first compound 10 µM
[19] = second compound 1 µM, first compound 0.0316 µM
[20] = second compound 1 µM, first compound 0.1 µM
[21] = second compound 1 µM, first compound 0.316 µM
[22] = second compound 1 µM, first compound 1 µM
[23] = second compound 1 µM, first compound 3.16 µM
[24] = second compound 1 µM, first compound 10 µM
[25] = second compound 3.16 µM, first compound 0.0316 µM
[26] = second compound 3.16 µM, first compound 0.1 µM
[27] = second compound 3.16 µM, first compound 0.316 µM
[28] = second compound 3.16 µM, first compound 1 µM
[29] = second compound 3.16 µM, first compound 3.16 µM
[30] = second compound 3.16 µM, first compound 10 µM
[31] = second compound 10 µM, first compound 0.0316 µM
[32] = second compound 10 µM, first compound 0.1 µM
[33] = second compound 10 µM, first compound 0.316 µM
[34] = second compound 10 µM, first compound 1 µM
[35] = second compound 10 µM, first compound 3.16 µM
[36] = second compound 10 µM, first compound 10 µM
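Further: spheroids exposed to agents for 7 days before read-out.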
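Wherever viability, T/C is given: luminescence used as surrogate of cell viability.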

C#Cc1c(F)ccc2cc(O)cc(-c3ncc4c(N5CC6CCC(C5)N6)nc(OCC56CCCN5CC(F)C6)nc4c3F)c12 (stereo not drawn) + Cc1nc(NC(=O)N2CCCC2C(N)=O)sc1-c1ccnc(C(C)(C)C(F)(F)F)c1
pIC50 (second compound 0.0316 µM): < 5.00 | pIC50 (second compound 0.1 µM): < 5.00 | pIC50 (second compound 0.316 µM): 5.01 | pIC50 (second compound 1 µM): 5.29 | pIC50 (second compound 3.16 µM): 5.45 | pIC50 (second compound 10 µM): > 7.50 | viability, T/C [1]: 104% | viability, T/C [2]: 85.6% | viability, T/C [3]: 81.8% | viability, T/C [4]: 82.7% | viability, T/C [5]: 80.7% | viability, T/C [6]: 68% | viability, T/C [7]: 103% | viability, T/C [8]: 81.7% | viability, T/C [9]: 82.3% | viability, T/C [10]: 70.4% | viability, T/C [11]: 80.8% | viability, T/C [12]: 69.6% | viability, T/C [13]: 64.3% | viability, T/C [14]: 90% | viability, T/C [15]: 74.5% | viability, T/C [16]: 69.8% | viability, T/C [17]: 78.5% | viability, T/C [18]: 49.8% | viability, T/C [19]: 65.1% | viability, T/C [20]: 68.3% | viability, T/C [21]: 72.5% | viability, T/C [22]: 66.8% | viability, T/C [23]: 60.3% | viability, T/C [24]: 35.5% | viability, T/C [25]: 47.6% | viability, T/C [26]: 75.2% | viability, T/C [27]: 59% | viability, T/C [28]: 59.5% | viability, T/C [29]: 49.3% | viability, T/C [30]: 34.9% | viability, T/C [31]: 47.2% | viability, T/C [32]: 41.7% | viability, T/C [33]: 51.5% | viability, T/C [34]: 37.3% | viability, T/C [35]: 36.1% | viability, T/C [36]: 16.9%

C=CC(=O)N1CCN(c2nc(=O)n(-c3c(C)ccnc3C(C)C)c3nc(-c4c(O)cccc4F)c(F)cc23)C(C)C1 (stereo not drawn) + Cc1nc(NC(=O)N2CCCC2C(N)=O)sc1-c1ccnc(C(C)(C)C(F)(F)F)c1
pIC50 (second compound 0.0316 µM): < 5.00 | pIC50 (second compound 0.1 µM): < 5.00 | pIC50 (second compound 0.316 µM): < 5.00 | pIC50 (second compound 1 µM): < 5.00 | pIC50 (second compound 3.16 µM): < 5.00 | pIC50 (second compound 10 µM): > 7.50 | viability, T/C [1]: 85.5% | viability, T/C [2]: 85.2% | viability, T/C [3]: 86.6% | viability, T/C [4]: 84.6% | viability, T/C [5]: 91.7% | viability, T/C [6]: 102% | viability, T/C [7]: 91.9% | viability, T/C [8]: 85.8% | viability, T/C [9]: 75.6% | viability, T/C [10]: 84.6% | viability, T/C [11]: 100% | viability, T/C [12]: 74% | viability, T/C [13]: 73.3% | viability, T/C [14]: 74.5% | viability, T/C [15]: 62.5% | viability, T/C [16]: 94% | viability, T/C [17]: 91.3% | viability, T/C [18]: 69.8% | viability, T/C [19]: 65.5% | viability, T/C [20]: 65.7% | viability, T/C [21]: 57.3% | viability, T/C [22]: 66.6% | viability, T/C [23]: 66.1% | viability, T/C [24]: 76.5% | viability, T/C [25]: 61% | viability, T/C [26]: 52.9% | viability, T/C [27]: 64.4% | viability, T/C [28]: 56.8% | viability, T/C [29]: 77.7% | viability, T/C [30]: 53.3% | viability, T/C [31]: 46.9% | viability, T/C [32]: 44.7% | viability, T/C [33]: 44.9% | viability, T/C [34]: 56.3% | viability, T/C [35]: 48.7% | viability, T/C [36]: 42%

CC(Cn1ccc(-c2ccc(C#N)c(Cl)c2)n1)NC(=O)c1cc(C(C)O)[nH]n1 (stereo not drawn) + Cc1nc(NC(=O)N2CCCC2C(N)=O)sc1-c1ccnc(C(C)(C)C(F)(F)F)c1
pIC50 (second compound 0.0316 µM): < 5.00 | pIC50 (second compound 0.1 µM): < 5.00 | pIC50 (second compound 0.316 µM): < 5.00 | pIC50 (second compound 1 µM): < 5.00 | pIC50 (second compound 3.16 µM): < 5.00 | pIC50 (second compound 10 µM): < 5.00 | viability, T/C [1]: 90.6% | viability, T/C [2]: 118% | viability, T/C [3]: 104% | viability, T/C [4]: 93.9% | viability, T/C [5]: 109% | viability, T/C [6]: 102% | viability, T/C [7]: 95.1% | viability, T/C [8]: 103% | viability, T/C [9]: 91.6% | viability, T/C [10]: 100% | viability, T/C [11]: 92.9% | viability, T/C [12]: 119% | viability, T/C [13]: 69.3% | viability, T/C [14]: 94.3% | viability, T/C [15]: 95% | viability, T/C [16]: 92.7% | viability, T/C [17]: 102% | viability, T/C [18]: 73.8% | viability, T/C [19]: 58% | viability, T/C [20]: 66.8% | viability, T/C [21]: 75.2% | viability, T/C [22]: 72.5% | viability, T/C [23]: 83.5% | viability, T/C [24]: 65.7% | viability, T/C [25]: 54.4% | viability, T/C [26]: 62.3% | viability, T/C [27]: 61.5% | viability, T/C [28]: 52.5% | viability, T/C [29]: 62.9% | viability, T/C [30]: 73.7% | viability, T/C [31]: 57.3% | viability, T/C [32]: 58.4% | viability, T/C [33]: 43.3% | viability, T/C [34]: 60.9% | viability, T/C [35]: 72.1% | viability, T/C [36]: 48.2%

CC1(C)CCC(Nc2ncc(C(F)(F)F)c(-c3c[nH]c4c(P(C)(C)=O)c(C#N)ccc34)n2)CN1 (stereo not drawn) + Cc1nc(NC(=O)N2CCCC2C(N)=O)sc1-c1ccnc(C(C)(C)C(F)(F)F)c1
pIC50 (second compound 0.0316 µM): 5.42 | pIC50 (second compound 0.1 µM): 5.22 | pIC50 (second compound 0.316 µM): 5.40 | pIC50 (second compound 1 µM): 6.20 | pIC50 (second compound 3.16 µM): 6.41 | pIC50 (second compound 10 µM): 7.36 | viability, T/C [1]: 82.8% | viability, T/C [2]: 72.5% | viability, T/C [3]: 55.6% | viability, T/C [4]: 54.7% | viability, T/C [5]: 61.5% | viability, T/C [6]: 40.8% | viability, T/C [7]: 78.4% | viability, T/C [8]: 68.8% | viability, T/C [9]: 69.7% | viability, T/C [10]: 66.8% | viability, T/C [11]: 63% | viability, T/C [12]: 41.2% | viability, T/C [13]: 67.5% | viability, T/C [14]: 73.3% | viability, T/C [15]: 48.5% | viability, T/C [16]: 58.5% | viability, T/C [17]: 60.4% | viability, T/C [18]: 39.2% | viability, T/C [19]: 51.6% | viability, T/C [20]: 53.8% | viability, T/C [21]: 72.8% | viability, T/C [22]: 43.6% | viability, T/C [23]: 45.5% | viability, T/C [24]: 34.1% | viability, T/C [25]: 58.9% | viability, T/C [26]: 51.2% | viability, T/C [27]: 49.4% | viability, T/C [28]: 47.3% | viability, T/C [29]: 41.4% | viability, T/C [30]: 30.7% | viability, T/C [31]: 54.8% | viability, T/C [32]: 39.1% | viability, T/C [33]: 39.6% | viability, T/C [34]: 34.9% | viability, T/C [35]: 31.4% | viability, T/C [36]: 23.3%
